By IC50 is commonly meant the concentration that inhibits the measured activity by half.

“And” between values parts separate entries of the source, which are not always exact repeats. Equal entries are not always repeated.

What all share (type): cell-based
Assay [1] relates to MCF7. The experiment in a line: MTT antiproliferative assay, MCF7. Particulars: MCF-7 breast cell line, 48 hrs drug incubation. The procedure:
(§1) MTT assay is a simple and sensitive assay where, metabolic reducing activity of the cells is measured. The increase of this activity in time is taken as a parameter of cell growth. If treatment with a drug impairs this increase, the action may be a consequence of growth inhibition, cell killing or both. The compounds of Formula V to XIV of the present invention, standard cytotoxic drug (e.g. Cisplatin) were tested at different concentrations (1, 0.1, 0.01, 0.001 mM) using breast and prostate cancer cell lines. All cell lines were cultured in a 37° C. incubator with a 5% CO2 environment. Compounds were dissolved in DMSO with a concentration of 0.1M (stock solution). Cells were seeded into 96-well plates at suitable plating efficiency.
(§2) Following Plating Efficiencies were Standardized for MTT Assay:
(§3) The MTT procedure followed was as follows. Briefly, the cells were plated in 96 well plate as per predetermined plating efficiency (Table 1) The plates were then incubated for 24 hrs in 5% CO2 atmosphere at 37° C. Appropriate concentrations of the drugs were then added to the plate and further incubation was carried out for 48 hrs (in 5% CO2 atmosphere at 37° C.). The assay plate was then centrifuged twice at 3000 rpm for 3 mins and supernatant was then discarded. 100 ul of MTT solution (0.5 mg/ml) was then added to each well of the plate and it was further incubated for 4 hrs (in 5% CO2 atmosphere at 37° C.) Following 4 hr incubation, the plate was then centrifuged twice, and supernatant was aspirated off very carefully. 200 ul of DMSO was then added to each well to solubilize. MTT crystals and mixed well by shaking the plate. XY graph of log Percent viability was then plotted against log drug concentration. […] (Drug concentration inhibiting the 50% of cell population) was then calculated by regression analysis.
A general note: Tetrazolium dyes change colour on reduction, which living cells bring about.

Assay [2] relates to MDAMB231. The experiment in a line: MTT antiproliferative assay, MDAMB231. Particulars: MDAMB231 breast cell line, 48 hrs drug incubation. The procedure:
as §1, §2, §3

Assay [3] concerns PC3. Nature of the assay: MTT antiproliferative assay, PC3. Particulars: PC3 prostate cell line, 48 hrs drug incubation. The procedure:
as §1, §2, §3

Assay [4] has as its system DU145. The experiment in a line: MTT antiproliferative assay, DU145. Particulars: DU145 prostate cell line, 48 hrs drug incubation. The procedure:
as §1, §2, §3

Assay [5] deals with MDAMB231. The experiment in a line: Soft Agar colony-formation Assay, MDAMB231. Particulars: MDAMB231 breast cell line, 1 week. The procedure:
(§4) The Soft Agar Colony-formation Assay is an anchorage-independent growth assay in soft agar, which is one of the most stringent assays for detecting malignant transformation of cells. For this assay, malignant cells are cultured with appropriate controls in soft agar medium for 1-2 weeks. Following this incubation period, formed colonies can either be analyzed morphologically using cell stain and quantifying the number of colonies formed.
(§5) Briefly, for Soft Agar Assay a mixture of 50 ul of 2× medium (taken appropriately as per cell line) and 50 ul of 1.2% Bacto Agar were plated on to each well of 96 well micro titer assay plate. 10 ul of cells (Of specific plating efficiency pre-standardized for respective cell line) were mixed with 20 ul of 2× medium and 30 ul of 0.8% of Bacto Agar and 1.6 ul of drug (of appropriate concentration) in a vial and transferred to the solidified pre-layers of the assay plates. The cells were then allowed to grow and form colonies at 37° C. and 5% CO2 for 1 week. An intermittent feeding with 50 ul of appropriate 2× medium was performed after 3 days of experimental set up. 16 ul of Alamar Blue (1.5 mg/ml) was then added to all the wells to quantify the developed colonies. The plates were incubated for 24 hrs at 37° C. Absorbance was then measured at 630 nm. XY graph of log Percent viability was then plotted against log drug concentration. IC50 (Drug concentration inhibiting the 50% of cell population) was then calculated by regression analysis.
(§6) Following Plating Efficiencies Were Standardized for Soft Agar Assay: […]

Assay [6] concerns PC3. Nature of the assay: Soft Agar colony-formation Assay, PC3. Particulars: PC3 prostate cell line, 1 week. The method, then: as §4, §5, §6
The subject of assay [7] is spheres of MDAMB231. The experiment in a line: In vitro sphere-forming assay, MDAMB231 in Mammosphere media. Particulars: 2000 cells/well, n = 6 ± S.D. From the text: (§7) Sphere assay measures the ability of Cancer Stein Cells to form spheres in specially designed serum-free medium. We have used this assay to measure the killing efficiency of the test compounds as compared to the standard chemotherapeutic drug, Cisplatin.
(§8) Materials and Reagents:50× B27 Supplement (Life Technologies, Invitrogen, Catalog No.: 17502-044), Fibroblast Growth Factor (FGF) (Sigma-Aldrich, Catlog No.: F029125), Epidermal Growth Factor (EGF) (Sigma-Aldrich, Catlog No.: E9644), Insulin (Sigma, Catlog No.: 19278), Dulbecco's Modified Eagle Medium/F12 (HiMedia Catlog No.: AL139-6), Dulbecco's Phosphate Buffered Saline (HiMedia Catlog No.: TL1006), Trypan Blue (TC193), Prostate Epithelial Media (LONZA, Catlog No.: CC-3166) MEGM (LONZA, Catlog No.: CC-3051), Heparin (Sigma, Catlog No.: H3393), Penstrep (HiMedia, Catlog No.: A002)
Mammosphere Media Preparation (For 100 mL): 1 g methyl cellulose autoclaved with magnetic stirrer Plain media (MEBM), 100 mL added and dissolved under magnetic stirring. After complete dissolution, add: FGF-80 μL, EGF-40 μL, Penstrep-1 mL, Heparin-400 μL.
(§9) Procedure: —The cells were trypsinised and made into single-cell suspension by passing through cell strainers ([…], respectively), The cells were diluted at the concentration of 2000 cells/100 μL and suspended in either Mammosphere (for breast cell lines) or Prostosphere (for prostate cell lines). 100 μL of this suspension was added into each well of 96-well suspension plates and incubated at 37° C., 5% CO2 for 24 hrs. Appropriate concentrations of the drugs (2 μL) were added into respective wells with 100 μL of stem cell culture medium. Plates were incubated at 37° C., 5% CO2 for 72 hrs. After incubation 2.5 μL of the respective drug concentration and 50 μL of stem cell culture medium were added into each well and the plates were further incubated at 37° C., 5% CO2 for 72 hrs. 3 μL of the respective drug concentration was added with 50 μL of stem cell culture medium again after incubation and plates were incubated again for 72 hrs at 37° C., 5% CO2. Number of primary spheres formed for each concentration was counted. A comparative graph of number of spheres formed was plotted against the concentration and the growth curve was compared with the positive control.

The test system of assay [8] is spheres of PC3. Nature of the assay: In vitro sphere-forming assay, PC3 in Prostosphere media. Particulars: 2000 cells/well, n = 6 ± S.D.
Excerpt: as §7, §8
Prostosphere Media Preparation (For 100 mL):1 g methyl cellulose autoclaved with magnetic stirrer, Plain media (Prostate Epithelial Basal Medium), 100 mL added and dissolved, under magnetic stirring. After complete dissolution, add: Insulin-40 μL, B27-2 mL, EGF-80 μL, Penstrep-1 ml.
as §9

Setting [9] is: Homo sapiens, MDA-MB-231, 168 h.

As for `N.N.[Cl][Pt][Cl]` [Cisplatin, reference compound], the IC50 in assay [1] was 29.6 µM and 32.4 µM and 33 µM; in assay [2], 32.7 µM and 38.5 µM and 37 µM and 35.5 µM; in assay [3], 28 µM and 29 µM and 40.7 µM and 35.8 µM and 36.4 µM; in assay [4], 23.9 µM and 43 µM and 34.4 µM and 35.5 µM; in assay [5] it was 41.7 µM and 24.8 µM and 37.3 µM and 23.9 µM; in assay [6] it was 20.6 µM and 21.3 µM and 23.8 µM and 21.9 µM. Moreover, the “3D sphere count of MDAMB231” value in assay [7] (drug conc 0.025 uM) is 50(±3) and 89(±4) and 62(±6) and 67(±2); in assay [7] (drug conc 0.25 uM) it was 42(±3) and 69(±7) and 48(±2) and 58(±3); in assay [7] (drug conc 2.5 uM) it was 35(±2) and 51(±5) and 43(±2) and 46(±3); in assay [7] (drug conc 25 uM), 31(±3) and 38(±8) and 37(±4) and 35(±2); in assay [7] (drug conc 250 uM), 18(±2) and 23(±5) and 31(±4) and 26(±3). The “3D sphere count of PC3” value was 58(±4) and 47(±4) and 62(±5) and 45(±2) in assay [8] (drug conc 0.025 uM); 47(±5) and 49(±7) and 55(±5) and 42(±3) in assay [8] (drug conc 0.25 uM); 40(±3) and 41(±4) and 46(±2) and 39(±2) in assay [8] (drug conc 2.5 uM); 32(±2) and 31(±5) and 33(±3) and 32(±3) in assay [8] (drug conc 25 uM); 25(±3) and 30(±5) and 22(±4) and 21(±2) in assay [8] (drug conc 250 uM).
As to `O=C(Oc1ccc(-c2ccc3c(c2)OCO3)c2ccccc12)C(c1ccccc1)C1CCCC1` (stereo not drawn) [Formula IX, 1-(benzo[d][1,3]dioxol-5-yl)naphthalen-4-yl 2-cyclopentyl-2-phenylacetate], the 50% inhibitory concentration (IC50) in assay [1] (Homo sapiens, MCF7) amounted to 5.24 µM; in assay [2] (Homo sapiens, MDA-MB-231), 5.26 µM; in assay [3] (Homo sapiens, PC-3), 5.62 µM; in assay [4] (Homo sapiens, DU-145), 8.91 µM; in assay [5] (setting [9]), 2.12 µM; in assay [6] (Homo sapiens, PC-3, 168 h) it was 4.81 µM. For the same compound, the “3D sphere count of MDAMB231” value is reported as 52(±4) in assay [7] (drug conc 0.025 uM); 40(±5) in assay [7] (drug conc 0.25 uM); 26(±3) in assay [7] (drug conc 2.5 uM); 22(±3) in assay [7] (drug conc 25 uM); 0(±0) in assay [7] (drug conc 250 uM). Moreover, the “3D sphere count of PC3” value is recorded as 60(±7) in assay [8] (drug conc 0.025 uM); 44(±4) in assay [8] (drug conc 0.25 uM); 37(±5) in assay [8] (drug conc 2.5 uM); 31(±3) in assay [8] (drug conc 25 uM); 0(±0) in assay [8] (drug conc 250 uM).
On to `O=C(Nc1ccc(-c2ccc3c(c2)OCO3)c2ccccc12)c1ccco1` [Formula XII, N-(1-(benzo[d][1,3]dioxol-5-yl)naphthalen-4-yl)furan-2-carboxamide], for which the IC50 in assay [1] (Homo sapiens, MCF7) came out at 4.95 µM; in assay [2] (Homo sapiens, MDA-MB-231), 3.37 µM; in assay [3] (Homo sapiens, PC-3), 19.6 µM; in assay [4] (Homo sapiens, DU-145), 9.82 µM; in assay [5] (setting [9]) it was 2.14 µM; in assay [6] (Homo sapiens, PC-3, 168 h), 3.36 µM. The “3D sphere count of MDAMB231” value is 31(±2) in assay [7] (drug conc 0.025 uM); 27(±2) in assay [7] (drug conc 0.25 uM); 17(±2) in assay [7] (drug conc 2.5 uM); 8(±1) in assay [7] (drug conc 25 uM); 0(±0) in assay [7] (drug conc 250 uM). Further, the “3D sphere count of PC3” value in assay [8] (drug conc 0.025 uM) is listed as 37(±3); in assay [8] (drug conc 0.25 uM), 28(±3); in assay [8] (drug conc 2.5 uM), 23(±2); in assay [8] (drug conc 25 uM) it was 15(±2); in assay [8] (drug conc 250 uM), 0(±0).
With `Cl.c1ccc(COc2ccc(-c3ccc4c(c3)OCO4)c3cccnc23)cc1` [Formula XIII, 5-(benzo[d][1,3]dioxol-5-yl)-8-(benzyloxy)quinoline hydrochloride], the concentration for half-maximal inhibition (IC50) in assay [2] (Homo sapiens, MDA-MB-231) is 8 µM; in assay [3] (Homo sapiens, PC-3), 4.33 µM; in assay [4] (Homo sapiens, DU-145) it was 4.06 µM; in assay [5] (setting [9]), 2.68 µM; in assay [6] (Homo sapiens, PC-3, 168 h), 6.32 µM. For the same compound, the “3D sphere count of MDAMB231” value was 45(±2) in assay [7] (drug conc 0.025 uM); 36(±3) in assay [7] (drug conc 0.25 uM); 27(±2) in assay [7] (drug conc 2.5 uM); 13(±2) in assay [7] (drug conc 25 uM); 0(±0) in assay [7] (drug conc 250 uM). For the same compound, the “3D sphere count of PC3” value is 41(±7) in assay [8] (drug conc 0.025 uM); 39(±5) in assay [8] (drug conc 0.25 uM); 27(±3) in assay [8] (drug conc 2.5 uM); 14(±1) in assay [8] (drug conc 25 uM); 0(±0) in assay [8] (drug conc 250 uM).
On to `O[C@@H]1[C@H](O)COC(Oc2ccc(-c3ccc4c(c3)OCO4)c3ccccc23)[C@H]1O` (stereo partly drawn) [Formula XI, (3S,4R,5R)-2-(1-(benzo[d][1,3]dioxol-5-yl)naphthalen-4-yloxy)-tetrahydro-2H-pyran-3,4,5-triol], for which the half-inhibitory concentration (IC50) came to 4.36 µM in assay [1] (Homo sapiens, MCF7); 9.77 µM in assay [2] (Homo sapiens, MDA-MB-231); 4.16 µM in assay [3] (Homo sapiens, PC-3); 10.2 µM in assay [4] (Homo sapiens, DU-145); 2.08 µM in assay [5] (setting [9]); 18.8 µM in assay [6] (Homo sapiens, PC-3, 168 h).

The record behind these values is patent publication US11680078B2, “Anticancer compounds” (GODAVARI BIOREFINERIES LIMITED, priority 2017, dated 2023).
